These results are taken from US20030133918A1, “Methods for ex vivo propagation of somatic stem cells” (priority 2001, published 2003).

The structures appear in SMILES notation.

Experiment [1] concerns freshly harvested murine bone marrow cells. Kind of experiment: Bone marrow colony formation in soft agar (fresh bone marrow). The following applies: fresh bone marrow cells; type I, II, III colonies. The format is cell-based. How it is done: The following numbers of freshly harvested murine bone marrow cells were plated in soft agar in replicates of 6 in 6-well plates: 1×10^5, 5×10^5, or 1×10^6. After 1-3 weeks, type I, II, and III colonies (see FIG. 2 for examples) were enumerated by phase microscopy.
Because of the difficulties anticipated in cloning Xs-dependent cells from heterogenous long-term bone marrow cultures, we decided to adopt a soft agar culture strategy. It is well known that hematopoietic progenitor cells will form colonies when grown in semi-solid medium (Dexter et al., 1984). […] In many bone marrow cell studies, conditions are selected to induce bone marrow cell differentiation. Methyl-cellulose or soft agar supplemented with lineage-promoting growth factors are widely used experimental systems (Dexter et al., 1984). For ideal SACK, we wished to minimize stimuli for differentiation. Therefore, we used agar developed in routine horse serum-supplemented long-term culture medium, without any additional growth factor source, as the gel medium for our studies. We followed procedures developed for detecting anchorage-independent growth of transformed tumor cells.
Given their associated HSC activity, LT-CFCs are predicted to divide with asymmetric cell kinetics. We evaluated whether Xs would increase the frequency of LT-CFC type I colonies in soft agar. Freshly prepared bone marrow cells were plated in soft agar developed in either control medium or medium containing 1 mM or 3 mM Xs.

Experiment [2] deals with p53-inducible model cells. The note with it: published studies (Sherley, 1991); cited from earlier work.
Another experiment has as its system Xs-D lines. The experiment is described as follows: Albumin induction in adherent culture under conditions of quiescence. The format is cell-based, rat. The note with it: added to standard quiescence-induction protocol (confluency, 1% serum). From the text:
In vivo, cell differentiation in somatic tissues has two important cell kinetics features. First, it occurs after a fixed number of cell divisions from the stem cell stage; and second, cells undergo a cell kinetics arrest before terminal differentiation occurs (Potten and Morris, 1988). Ideally, we wanted to mimic this process in culture with cells dividing with asymmetric stem cell kinetics. However, there was concern whether in vitro asymmetric divisions would be in appropriate balance with non-dividing cells. So, we decided to augment the growth arrest by growing cells to confluency in either Xs-free or Xs-containing medium and then inducing a total quiescent state by reducing the serum concentration to 1%. Many in vitro cell models have been described that undergo differentiation upon serum reduction.
The most dramatic differentiation result obtained in the adherent culture studies was the induction of albumin expression in Xs-D lines under conditions of quiescence (See example in FIG. 4). […] Three other treatments were added to the standard quiescence-induction protocol to evaluate their effect on albumin induction. These were DMSO to mimic glucocorticoid effects, growth on collagen as a form of extracellular matrix, and glucose-removal as noted above for its differentiation effects on gastrointestinal cell lines. […]

With `O=c1[nH]cnc2nc[nH]c12` [Hx, hypoxanthine], the “Effect on frequency of colony types in soft agar” value in experiment [1] was “increased the frequency of type II and III colonies at the expense of type I colonies”. Also, the “Effectiveness as SACK agent compared with Xs” value in experiment [2] is given as “not as effective a SACK agent as Xs”. As for `C[S+](C)[O-]` [DMSO], in the experiment on Xs-D lines, the “Effect on degree/induction of albumin expression” value was “no noticeable effect”.
